Data on 14 molecules can be found in PubChem BioAssay (NCI).

Molecules are shown by their SMILES.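 Step 1: Grow cells in 96-well plates. Step 2: Expose to compound for 48 hours at 5 concentrations. Step 3: Interpolate endpoints linearly; if unreached, use highest concentration. GI50 marks 50% less growth. TGI is the concentration that stops growth completely.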

Some test systems named below: NCI-H23 lung; UACC-62 melanoma; CCRF-CEM leukemia; OVCAR-8 ovarian; SR leukemia; SK-MEL-2 melanoma; SNB-78 CNS; SF-268 CNS; U251 CNS; NCI-H226 lung.
Holding throughout (experiment): DTP human tumour cell line panel, 48 h

On to `COc1ccc(-c2c(C3=NCCCN3)nnn2-c2ccc([N+](=O)[O-])cc2)cc1`, for which the total growth inhibition concentration (TGI) in the test with NCI-H23 lung, in the test with UACC-62 melanoma, in the test with CCRF-CEM leukemia, in the test with OVCAR-8 ovarian, with SR leukemia and in the test with SK-MEL-2 melanoma was > 100 µM in each case. Further, the concentration for total growth inhibition (TGI) in the test on SNB-78 CNS, in the test with SF-268 CNS, in the test with U251 CNS and in the test on NCI-H226 lung was > 100 µM each time.

`COc1cc(CNc2nc3ccc(C(F)(F)F)cc3nc2-c2ccccc2)cc(OC)c1OC`: the TGI in the test with NCI-H23 lung, in the test with UACC-62 melanoma, with CCRF-CEM leukemia, in the test on OVCAR-8 ovarian, with SK-MEL-2 melanoma and in the test with SNB-78 CNS was > 100 µM each time. The TGI in the test on SF-268 CNS and with U251 CNS was > 100 µM each time.

Turning to `CCCCCCCCCCCCCCCCCCOCC(COCCOCC[N+]1(CCCCCC(=O)[O-])CCCC1)Oc1ncccn1` (centres undefined), the total growth inhibition concentration (TGI) in the test on NCI-H23 lung was 18.1 µM; in the test on UACC-62 melanoma it was 14.2 µM; in the test on CCRF-CEM leukemia it was 13.9 µM; in the test on OVCAR-8 ovarian it was 15.9 µM; in the test with SR leukemia, 37.1 µM; in the test with SK-MEL-2 melanoma, 20 µM. Also, the concentration for total growth inhibition (TGI) in the test on SNB-78 CNS worked out at 4.52 µM; with SF-268 CNS, 16.5 µM; in the test on U251 CNS it was 8.5 µM; in the test with NCI-H226 lung it was 26.7 µM.

Turning to `Cc1c(C)c(CC(=O)N2CC2)c(C)c(C)c1CC(=O)N1CC1`, the TGI in the test on NCI-H23 lung was 39.4 µM; in the test with UACC-62 melanoma, 17.2 µM; with CCRF-CEM leukemia, > 48.8 µM; with OVCAR-8 ovarian, > 49.6 µM; in the test with SR leukemia, 4.79 µM; in the test on SK-MEL-2 melanoma, 32.6 µM. For the same molecule, the TGI was 57.3 µM in the test with SNB-78 CNS, 23.1 µM with SF-268 CNS, > 67.3 µM with U251 CNS and 43.6 µM in the test with NCI-H226 lung.

Regarding `O=c1[nH]c2cc([N+](=O)[O-])ccc2nc1/C(=N\Nc1ccccc1)C(O)c1ccc2c(c1)OCO2` (centres undefined), the total growth inhibition concentration (TGI) with NCI-H23 lung, in the test with UACC-62 melanoma, with CCRF-CEM leukemia, in the test on OVCAR-8 ovarian, with SR leukemia and in the test with SK-MEL-2 melanoma was > 100 µM in each case. Besides, the total growth inhibition concentration (TGI) with SNB-78 CNS, in the test on SF-268 CNS, in the test with U251 CNS and with NCI-H226 lung was > 100 µM in each case.

For the molecule `CCOC(OC1=C(C#N)CCCC1)C(CC)[Se]c1ccccc1` (centres undefined), the TGI in the test on NCI-H23 lung came to 31.5 µM; in the test on UACC-62 melanoma, 48 µM; in the test with CCRF-CEM leukemia, 56.4 µM; in the test with OVCAR-8 ovarian, 34.7 µM; in the test on SR leukemia, 31 µM; with SK-MEL-2 melanoma, 80.8 µM. For the same molecule, the TGI came to 89.7 µM with SNB-78 CNS, 27.8 µM in the test with SF-268 CNS, 44.3 µM in the test on U251 CNS and 49.6 µM with NCI-H226 lung.

For the molecule `N.N.N.N.N.O=S(=O)([O-])S(=O)(=O)[O-].[Co+3]`, the GI50 in the test with NCI-H23 lung, in the test with UACC-62 melanoma, with CCRF-CEM leukemia, in the test on OVCAR-8 ovarian, with SK-MEL-2 melanoma and in the test with SNB-78 CNS was > 100 µM each time. Further, the GI50 with SF-268 CNS and with U251 CNS was > 100 µM in each case. For the same molecule, the TGI in the test on NCI-H23 lung, in the test on UACC-62 melanoma, with CCRF-CEM leukemia, in the test on OVCAR-8 ovarian, in the test with SK-MEL-2 melanoma and with SNB-78 CNS was > 100 µM throughout. Besides, the total growth inhibition concentration (TGI) in the test on SF-268 CNS and in the test on U251 CNS was > 100 µM each time.

With `CC1=NN(C(=O)c2ccncc2)C(=O)C1N=Nc1ccc(F)cc1` (centres undefined), the TGI in the test on NCI-H23 lung, in the test on UACC-62 melanoma, with OVCAR-8 ovarian, with SK-MEL-2 melanoma, in the test with SNB-78 CNS and in the test with SF-268 CNS was > 100 µM in each case. Further, the total growth inhibition concentration (TGI) in the test on NCI-H226 lung is > 100 µM.

For `Cc1ccccc1/C=C/C(=O)c1ccccc1`, the TGI in the test with NCI-H23 lung was 32.2 µM; with UACC-62 melanoma, 38 µM; in the test with CCRF-CEM leukemia, 69.3 µM; in the test with OVCAR-8 ovarian it was 63.9 µM; with SR leukemia, > 100 µM; in the test with SK-MEL-2 melanoma, > 10 µM. The total growth inhibition concentration (TGI) with SNB-78 CNS amounted to 39.2 µM; with SF-268 CNS it was 30 µM; in the test with U251 CNS, 30.5 µM; in the test with NCI-H226 lung it was 36.7 µM.

Take `C[C@]12C/C(=C/O)C(=O)C(O)=C1CC[C@@H]1C2CC[C@@]2(C)C1CC[C@@H]2O` (some centres undefined): the concentration for total growth inhibition (TGI) came out at 40.3 µM with NCI-H23 lung; 46.7 µM with UACC-62 melanoma; 47.5 µM in the test on CCRF-CEM leukemia; 75.6 µM in the test with OVCAR-8 ovarian; 55.4 µM in the test on SK-MEL-2 melanoma; 47.3 µM with SNB-78 CNS. The TGI in the test on SF-268 CNS came out at 54.1 µM; in the test with NCI-H226 lung, 36.8 µM.

As for `N#Cc1c(-c2ccco2)cc(-c2ccccc2)[nH]c1=O`, the TGI with NCI-H23 lung, in the test with UACC-62 melanoma, in the test with CCRF-CEM leukemia, in the test on OVCAR-8 ovarian, with SR leukemia and in the test with SNB-78 CNS was > 100 µM in each case. Moreover, the TGI with SF-268 CNS, in the test with U251 CNS and in the test on NCI-H226 lung was > 100 µM in each case.

Regarding `O=C1[C@H]2ON(c3ccccc3)C(c3ccco3)[C@H]2C(=O)N1c1ccc(Cc2ccc(N3C(=O)[C@@H]4ON(c5ccccc5)C(c5ccco5)[C@@H]4C3=O)cc2)cc1` (some centres undefined), the TGI with NCI-H23 lung, in the test with UACC-62 melanoma, in the test on CCRF-CEM leukemia, in the test on SK-MEL-2 melanoma, in the test on SNB-78 CNS and in the test with SF-268 CNS was > 100 µM each time. Also, the total growth inhibition concentration (TGI) with U251 CNS and in the test on NCI-H226 lung was > 100 µM in each case.

As to `Cc1c2ccncc2c(C)c2c1[nH]c1ccc(O)c(OCC(F)(F)F)c12`, the concentration for total growth inhibition (TGI) with NCI-H23 lung amounted to 19.4 µM; in the test with UACC-62 melanoma, 21.6 µM; in the test with CCRF-CEM leukemia it was 7.18 µM; in the test with OVCAR-8 ovarian it was 26 µM; in the test with SK-MEL-2 melanoma it was 22.9 µM; in the test with SNB-78 CNS, 18.2 µM. Also, the TGI with SF-268 CNS was 24.1 µM; in the test on U251 CNS, 10.7 µM; with NCI-H226 lung, 20.1 µM.

For `C=C1C(=O)C23C(O)C1CC[C@H]2C12CCCC(C)(COC(C)=O)[C@H]1[C@H](O)[C@]3(O)OC2` (some centres undefined), the TGI in the test on NCI-H23 lung amounted to 3.53 µM; with UACC-62 melanoma, 3.16 µM; in the test with CCRF-CEM leukemia, 1.16 µM; with OVCAR-8 ovarian, 3.52 µM; in the test on SK-MEL-2 melanoma, 3.49 µM; in the test on SNB-78 CNS, 2.96 µM. The total growth inhibition concentration (TGI) came out at 6.95 µM in the test on SF-268 CNS, 5.4 µM with U251 CNS and 5.7 µM with NCI-H226 lung.
